Test results: ChEMBL document CHEMBL1201862, “PubChem BioAssay data set” (2004)
Active and inactive are the calls of the source.

What was measured:
Mucolipin-3 = Mucolipin-3 (Homo sapiens, UniProt Q8TDD5); assay: Dose response cell-based high-throughput screening assay for agonists of the transient receptor potential channel ML3 (TRPML3). [Related pubchem assays: 1526, 1424, 1448 ]; type: functional
Ion channel NompC = Ion channel NompC (Danio rerio, UniProt Q7T1G6); assay: Fluorescence counterscreen assay for TRPML3 agonists: dose response cell-based high-throughput screening assay to identify agonists of the transient receptor potential channel N1 (TRPN1). [Related pubchem assays: 1526, 1424, 1448 ]; type: functional
[1] = molecular target: Peroxisome proliferator-activated receptor gamma/Nuclear receptor coactivator 1 (Homo sapiens, UniProt P37231); type: functional;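 further: agonist potency as compounds enhance coactivator SRC-1 recruitment to PPARgamma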
Peroxisome proliferator-activated receptor gamma/Nuclear receptor coactivator 1, sequence (P37231 whole entry): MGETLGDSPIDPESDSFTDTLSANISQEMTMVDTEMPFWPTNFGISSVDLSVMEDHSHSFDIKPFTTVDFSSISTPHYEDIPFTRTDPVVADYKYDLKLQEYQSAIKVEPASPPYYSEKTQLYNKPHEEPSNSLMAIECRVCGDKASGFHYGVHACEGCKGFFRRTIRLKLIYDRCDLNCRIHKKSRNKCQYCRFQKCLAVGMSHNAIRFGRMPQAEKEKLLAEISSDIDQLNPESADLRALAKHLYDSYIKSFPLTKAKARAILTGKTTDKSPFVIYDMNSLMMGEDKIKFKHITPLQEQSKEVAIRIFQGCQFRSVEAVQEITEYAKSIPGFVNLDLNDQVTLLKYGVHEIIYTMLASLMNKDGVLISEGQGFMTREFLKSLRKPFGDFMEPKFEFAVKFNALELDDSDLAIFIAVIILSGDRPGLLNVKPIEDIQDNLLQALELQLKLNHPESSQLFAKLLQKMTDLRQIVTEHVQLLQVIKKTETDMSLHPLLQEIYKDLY
Peroxisome proliferator-activated receptor gamma/Nuclear receptor coactivator 1, sequence (Q15788 whole entry, further chain): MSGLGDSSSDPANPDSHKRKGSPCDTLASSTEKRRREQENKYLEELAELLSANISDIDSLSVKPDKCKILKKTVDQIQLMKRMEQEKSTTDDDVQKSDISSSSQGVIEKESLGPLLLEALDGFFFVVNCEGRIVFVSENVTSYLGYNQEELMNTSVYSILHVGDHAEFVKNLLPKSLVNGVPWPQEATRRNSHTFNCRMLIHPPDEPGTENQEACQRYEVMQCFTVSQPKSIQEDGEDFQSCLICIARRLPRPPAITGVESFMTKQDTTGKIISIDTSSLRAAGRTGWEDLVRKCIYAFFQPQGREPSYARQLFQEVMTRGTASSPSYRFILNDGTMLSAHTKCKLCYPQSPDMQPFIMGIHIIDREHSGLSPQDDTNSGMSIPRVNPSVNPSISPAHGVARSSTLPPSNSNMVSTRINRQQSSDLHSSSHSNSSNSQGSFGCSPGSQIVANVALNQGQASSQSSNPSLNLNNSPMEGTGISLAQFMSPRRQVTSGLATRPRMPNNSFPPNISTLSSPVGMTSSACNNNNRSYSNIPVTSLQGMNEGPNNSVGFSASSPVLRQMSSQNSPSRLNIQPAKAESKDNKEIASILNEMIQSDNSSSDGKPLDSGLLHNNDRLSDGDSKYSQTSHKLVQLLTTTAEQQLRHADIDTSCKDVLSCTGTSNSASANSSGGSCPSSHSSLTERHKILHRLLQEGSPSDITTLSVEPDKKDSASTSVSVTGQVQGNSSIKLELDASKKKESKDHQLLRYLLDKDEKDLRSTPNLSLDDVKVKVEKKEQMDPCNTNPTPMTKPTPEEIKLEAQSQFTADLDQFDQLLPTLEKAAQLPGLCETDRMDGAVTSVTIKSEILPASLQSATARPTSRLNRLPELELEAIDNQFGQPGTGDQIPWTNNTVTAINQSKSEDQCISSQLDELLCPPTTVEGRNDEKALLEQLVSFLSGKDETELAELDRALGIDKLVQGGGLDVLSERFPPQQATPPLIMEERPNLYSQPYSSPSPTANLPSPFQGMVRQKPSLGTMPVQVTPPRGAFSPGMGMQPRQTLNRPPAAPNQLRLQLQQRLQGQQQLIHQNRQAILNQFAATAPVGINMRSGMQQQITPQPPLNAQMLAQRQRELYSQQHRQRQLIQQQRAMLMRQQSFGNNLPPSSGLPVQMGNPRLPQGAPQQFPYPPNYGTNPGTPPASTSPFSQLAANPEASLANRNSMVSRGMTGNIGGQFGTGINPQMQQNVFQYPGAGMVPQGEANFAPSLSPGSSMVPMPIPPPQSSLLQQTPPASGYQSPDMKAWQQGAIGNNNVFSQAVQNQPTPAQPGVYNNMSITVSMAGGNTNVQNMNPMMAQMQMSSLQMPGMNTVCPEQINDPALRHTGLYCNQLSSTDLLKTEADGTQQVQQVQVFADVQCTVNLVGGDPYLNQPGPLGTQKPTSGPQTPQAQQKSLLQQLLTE

[2] = molecular target: Peroxisome proliferator-activated receptor gamma/Nuclear receptor coactivator 3 (Homo sapiens, UniProt P37231); type: functional;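 further: agonist potency for raising coactivator recruitment to the receptor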
Peroxisome proliferator-activated receptor gamma/Nuclear receptor coactivator 3, sequence (P37231 whole entry): as the sequence (P37231 whole entry) above
Peroxisome proliferator-activated receptor gamma/Nuclear receptor coactivator 3, sequence (Q9Y6Q9 whole entry, further chain): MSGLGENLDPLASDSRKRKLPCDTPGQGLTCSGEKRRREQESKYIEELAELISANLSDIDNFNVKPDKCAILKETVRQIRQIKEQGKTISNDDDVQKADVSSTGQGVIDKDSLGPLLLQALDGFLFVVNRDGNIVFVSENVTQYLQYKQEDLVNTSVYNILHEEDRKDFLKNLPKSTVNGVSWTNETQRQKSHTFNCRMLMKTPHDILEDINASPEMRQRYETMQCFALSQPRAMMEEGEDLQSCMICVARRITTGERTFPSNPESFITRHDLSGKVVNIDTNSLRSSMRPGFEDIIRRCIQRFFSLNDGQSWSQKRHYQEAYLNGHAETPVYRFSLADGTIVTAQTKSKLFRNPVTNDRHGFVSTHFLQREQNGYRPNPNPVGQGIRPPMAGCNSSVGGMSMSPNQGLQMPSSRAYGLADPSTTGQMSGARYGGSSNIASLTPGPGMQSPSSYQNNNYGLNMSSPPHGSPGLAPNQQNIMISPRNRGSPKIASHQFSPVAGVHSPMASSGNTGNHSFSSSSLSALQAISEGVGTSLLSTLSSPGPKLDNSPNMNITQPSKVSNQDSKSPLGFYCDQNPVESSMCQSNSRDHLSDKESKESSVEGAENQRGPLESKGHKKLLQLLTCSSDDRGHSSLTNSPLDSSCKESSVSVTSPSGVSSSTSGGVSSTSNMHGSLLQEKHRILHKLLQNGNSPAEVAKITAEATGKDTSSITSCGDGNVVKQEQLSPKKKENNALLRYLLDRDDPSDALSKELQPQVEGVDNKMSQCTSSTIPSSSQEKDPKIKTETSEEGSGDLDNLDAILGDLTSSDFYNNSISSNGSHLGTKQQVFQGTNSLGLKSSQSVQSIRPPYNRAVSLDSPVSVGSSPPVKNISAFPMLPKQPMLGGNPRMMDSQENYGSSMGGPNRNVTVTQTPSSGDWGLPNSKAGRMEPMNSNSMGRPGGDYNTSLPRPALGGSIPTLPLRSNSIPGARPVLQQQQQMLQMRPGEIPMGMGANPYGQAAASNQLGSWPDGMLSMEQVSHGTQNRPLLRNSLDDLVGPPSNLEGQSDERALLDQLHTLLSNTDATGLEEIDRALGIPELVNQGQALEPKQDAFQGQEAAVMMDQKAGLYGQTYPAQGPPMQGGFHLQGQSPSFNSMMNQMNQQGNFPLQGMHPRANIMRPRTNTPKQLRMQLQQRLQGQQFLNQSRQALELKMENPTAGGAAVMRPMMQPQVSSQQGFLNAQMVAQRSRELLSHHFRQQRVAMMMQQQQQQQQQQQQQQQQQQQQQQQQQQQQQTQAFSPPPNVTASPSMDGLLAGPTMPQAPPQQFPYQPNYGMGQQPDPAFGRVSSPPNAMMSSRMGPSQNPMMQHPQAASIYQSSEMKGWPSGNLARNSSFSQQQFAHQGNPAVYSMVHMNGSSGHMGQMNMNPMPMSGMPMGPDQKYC

[3] = molecular target: Peroxisome proliferator-activated receptor gamma/Nuclear receptor coactivator 2 (Homo sapiens, UniProt P37231); type: functional;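 further: agonist potency for raising coactivator recruitment to the receptor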
[4] = inhibitors of Bluetongue virus cytopathic effect, confirmation, arbovirus, BSR cells (AID 1250); type: functional;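 further: protection from viral cytopathic effect measured as cell viability by ATP luminescence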
INS1 = assay: beta cell apoptosis inhibitors, cytokine rescue, dose response, luminescence, retest (AID 449756); type: functional, cell-based; details: Rattus norvegicus;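 further: cell death triggered by IL-1 beta plus TNF-alpha plus IFN-gamma mixture; protective hits raise ATP signal compared with cytokine alone wells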
[5] = microbe, parasite or virus in culture; type: functional; details: Mycobacterium tuberculosis
[6] = A High Throughput Confirmatory Assay used to Identify Novel Compounds that Inhibit Mycobacterium Tuberculosis in the absence of Glycerol.; type: functional
[7] = molecular target: Sphingosine 1-phosphate receptor 2 (Homo sapiens, UniProt O95136); assay: Dose Response Cell Based Assay for Agonists of the S1P2 Receptor of Purchased Analogues. [Related pubchem assays: 729, 843, 854, 736 ]; type: functional
[8] = molecular target: Luciferin 4-monooxygenase (Photinus pyralis, UniProt P08659); assay: firefly luciferase enzyme inhibitors, dose response, biochemical, luminescence (AID 1891)
HEK293 = assay: Fluorescence-based counterscreen for potentiators or agonists of NPY-Y2: cell-based high-throughput dose response assay to identify inhibitors of cyclic nucleotide gated ion channel (CNGC) activity. In this assay, the parental HEK293 cell line transfected with a cyclic-nucleotide gated ion channel (CNGC)-based cAMP sensor is used to measure inhibition of isoproterenol-induced CNGC activity by test compound.; type: functional; details: Homo sapiens;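 further: stimulus is 1 µM isoproterenol at EC100 plus PDE inhibitor Ro 20-1724 at 25 µM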
Paired box protein Pax-8 = Paired box protein Pax-8 (Homo sapiens, UniProt Q06710); assay: inhibitors of PAX8-driven TPO luciferase reporter, dose response, RMG-I cells, cherry-pick (AID 687027); type: functional, cell-based;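 further: luciferase reporter driven by Pax8 target thyroperoxidase promoter measured by SteadyGlo luminescence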
Paired box protein Pax-8, sequence (Q06710 whole entry): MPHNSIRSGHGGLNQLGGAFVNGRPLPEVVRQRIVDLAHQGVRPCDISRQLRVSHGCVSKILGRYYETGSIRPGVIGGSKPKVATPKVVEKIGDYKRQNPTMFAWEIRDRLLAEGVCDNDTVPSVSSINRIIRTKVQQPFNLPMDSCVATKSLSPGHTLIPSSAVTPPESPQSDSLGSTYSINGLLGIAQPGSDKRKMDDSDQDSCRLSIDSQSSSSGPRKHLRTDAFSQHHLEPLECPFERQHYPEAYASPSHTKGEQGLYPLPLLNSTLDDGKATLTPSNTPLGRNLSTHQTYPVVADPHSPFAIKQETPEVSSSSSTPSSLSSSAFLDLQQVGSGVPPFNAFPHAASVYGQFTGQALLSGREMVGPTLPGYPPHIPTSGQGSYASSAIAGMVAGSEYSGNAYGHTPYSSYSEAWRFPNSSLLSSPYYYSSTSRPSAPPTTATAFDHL

[9] = Luminescence Cell-Based Dose Confirmation HTS to Identify Inhibitors of Platelet Dense Granule Release. [Related pubchem assays: 1663 (Primary HTS), 1678 (Summary of Project)]; type: functional
[10] = molecular target: T1, Neuropeptide Y receptor type 2 (Homo sapiens, UniProt P49146); assay: Fluorescence-based cell-based high-throughput dose response assay for agonists of NPY-Y2. [Related pubchem assays: 1703 (Screening assay (CNGC inhibitors).), 1359 (Screening assay (NPY-Y2 potentiators or agonists).), 1304 (Screening assay (NPY-Y1 potentiators or agonists).), 1710 (Screening assay (NPY-Y2 agonists).), 1791 (Summary AID.)]; type: functional
T1 sequence (P49146 whole entry): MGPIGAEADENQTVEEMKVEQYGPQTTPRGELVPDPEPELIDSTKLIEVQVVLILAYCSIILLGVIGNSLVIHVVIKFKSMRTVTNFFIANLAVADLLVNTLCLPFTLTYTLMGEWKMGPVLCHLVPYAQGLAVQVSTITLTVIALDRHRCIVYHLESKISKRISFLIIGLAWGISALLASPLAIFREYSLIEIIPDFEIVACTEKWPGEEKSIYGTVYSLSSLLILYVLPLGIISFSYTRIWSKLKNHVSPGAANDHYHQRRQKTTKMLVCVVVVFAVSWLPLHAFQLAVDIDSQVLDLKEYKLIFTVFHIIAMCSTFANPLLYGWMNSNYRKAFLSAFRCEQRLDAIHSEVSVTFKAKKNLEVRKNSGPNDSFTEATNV

[11] = molecular target: T2, Neuropeptide Y receptor type 1 (Homo sapiens, UniProt P25929); assay: Fluorescence-based counterscreen for agonists of NPY-Y2: cell-based high-throughput dose response assay for agonists of NPY-Y1.; type: functional
T2 sequence (P25929 whole entry): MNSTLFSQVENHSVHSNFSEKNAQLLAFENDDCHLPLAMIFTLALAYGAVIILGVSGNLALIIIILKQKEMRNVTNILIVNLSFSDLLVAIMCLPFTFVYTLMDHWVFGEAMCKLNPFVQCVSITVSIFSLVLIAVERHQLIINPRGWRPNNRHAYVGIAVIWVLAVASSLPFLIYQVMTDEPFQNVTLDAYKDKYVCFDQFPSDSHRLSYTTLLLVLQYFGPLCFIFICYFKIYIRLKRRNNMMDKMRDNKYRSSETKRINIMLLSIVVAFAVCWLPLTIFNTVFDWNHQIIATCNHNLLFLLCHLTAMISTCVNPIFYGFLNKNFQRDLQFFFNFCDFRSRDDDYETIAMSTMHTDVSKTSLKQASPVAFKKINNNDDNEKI

Mucolipin-3, sequence (Q8TDD5 whole entry): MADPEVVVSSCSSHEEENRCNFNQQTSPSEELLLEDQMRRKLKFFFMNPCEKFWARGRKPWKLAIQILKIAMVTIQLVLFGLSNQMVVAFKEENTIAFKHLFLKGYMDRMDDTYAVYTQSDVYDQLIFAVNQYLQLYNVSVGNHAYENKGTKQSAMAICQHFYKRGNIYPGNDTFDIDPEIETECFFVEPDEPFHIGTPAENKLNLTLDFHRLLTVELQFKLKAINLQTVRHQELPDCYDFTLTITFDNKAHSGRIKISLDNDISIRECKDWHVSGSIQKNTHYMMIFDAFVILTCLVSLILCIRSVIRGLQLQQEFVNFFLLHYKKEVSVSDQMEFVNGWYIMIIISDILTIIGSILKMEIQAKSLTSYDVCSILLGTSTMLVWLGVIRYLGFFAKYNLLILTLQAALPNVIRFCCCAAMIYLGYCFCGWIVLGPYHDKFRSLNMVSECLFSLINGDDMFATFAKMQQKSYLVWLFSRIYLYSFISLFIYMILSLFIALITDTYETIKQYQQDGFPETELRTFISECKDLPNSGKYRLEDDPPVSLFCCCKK

Q: With `COc1cccc(CN(CC2CCCO2)S(=O)(=O)c2ccc(S(=O)(=O)N(C)C)cc2)c1` (stereo not given) as the molecule, how does the EC50 (Mucolipin-3) read?
A: Its EC50 is > 29.9 µM (not active).

Q: And the EC50 (Ion channel NompC)?
A: The EC50 was > 29.9 µM (not active).

Q: With `Cc1nn(Cc2c(F)cccc2Cl)c(C)c1[N+](=O)[O-]` as the molecule, how does the EC50 [1] read?
A: Its EC50 is > 79.4 µM (not active).

Q: And the EC50 [2]?
A: Its EC50 is > 79.4 µM (not active).

Q: And the EC50 [3]?
A: Its EC50 is > 79.4 µM (not active).

Q: What does the source list for `O=C(Nc1nc2ccccc2s1)c1cc(-c2ccccc2)nn1-c1ccccc1`?
A: IC50 [4]: 47.4 µM (active); AC50 (INS1): 3.62 µM (active)

Q: Which results are given for `COc1ccc([C@H]2CC(=O)C=C(c3ccc4c5c(cccc35)CC4)C2)cc1`?
A: CC50 [5]: > 40 µM (active); IC50 [6]: > 100 µM (active)

Q: For `N#Cc1cc(O)c(-n2nnc3ccccc32)cc1C#N`, which EC50 [1] is on record?
A: Its EC50 is > 79.4 µM (not active).

Q: What about the EC50 [2] of the same molecule?
A: Its EC50 is > 79.4 µM (not active).

Q: And the EC50 [3]?
A: Its EC50 is > 79.4 µM (not active).

Q: For `Cc1cc(C(=O)CN2C(=O)C(=O)N(C)C2=O)c(C)n1Cc1ccccc1`, which EC50 [7] is on record?
A: Its EC50 is 22.3 µM (not active).

Q: For `O=C(N/N=C/c1ccc(Cl)c([N+](=O)[O-])c1)c1cc(-c2ccc3c4c(cccc24)CC3)[nH]n1`, which EC50 [8] is on record?
A: Its EC50 is > 112 µM (not active).

Q: And the EC50 (HEK293)?
A: Its EC50 is > 35.4 µM (not active).

Q: What about the AC50 (Paired box protein Pax-8) of the same molecule?
A: Its AC50 is 3.25 µM (active).

Q: And the EC50 [9]?
A: Its EC50 is > 112 µM (not active).

Q: What about the EC50 [10] of the same molecule?
A: The EC50 was > 35.4 µM (not active).

Q: What about the EC50 [11] of the same molecule?
A: The EC50 was > 35.4 µM (not active).

Q: For `Cn1c(=O)n(Cc2ccccc2)c(=O)c2c1nc1n2CCCN1C1CCCCC1`, which IC50 [6] is on record?
A: Its IC50 is > 100 µM (active).
